Results published in PubChem BioAssay (NCI).
Several values for one entry are separate records, joined by “and”; a condition that tells them apart may be missing. Equal values may be shown once.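 Each compound was tested at five concentrations against cells in 96-well plates for 48 hours. Here, GI50 denotes the concentration required for 50% inhibition of growth. TGI marks complete inhibition of growth.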

Key:
Experiment in all cases: NCI-60 cell line screen, 48 h
CCRF-CEM leukemia = test system: CCRF-CEM leukemia
SNB-19 CNS = test system: SNB-19 CNS
OVCAR-4 ovarian = test system: OVCAR-4 ovarian
U251 CNS = test system: U251 CNS
HT29 colon = test system: HT29 colon
DU-145 prostate = test system: DU-145 prostate
SK-MEL-2 melanoma = test system: SK-MEL-2 melanoma
PC-3 prostate = test system: PC-3 prostate

SMILES	GI50 (CCRF-CEM leukemia)	TGI (CCRF-CEM leukemia)	GI50 (SNB-19 CNS)	TGI (SNB-19 CNS)	GI50 (OVCAR-4 ovarian)	TGI (OVCAR-4 ovarian)	GI50 (U251 CNS)	TGI (U251 CNS)	GI50 (HT29 colon)	TGI (HT29 colon)	GI50 (DU-145 prostate)	TGI (DU-145 prostate)	GI50 (SK-MEL-2 melanoma)	TGI (SK-MEL-2 melanoma)	GI50 (PC-3 prostate)	TGI (PC-3 prostate)
O=C(O)c1ccc2c(c1)CCCC(c1ccc(Cl)cc1Cl)=C2c1ccc(O[C@H]2CCN(CCCF)C2)cc1	10800 nM	27.6 µM	12 µM	26.4 µM	12000 nM	30 µM	10.1 µM	25.2 µM	11.9 µM	28.1 µM	14.2 µM	27.5 µM	14.3 µM	30.6 µM	10.4 µM	24.2 µM
COC(=O)c1nc(Cl)nc(Cl)c1Cl	–	27.7 µM	–	> 100 µM	–	41 µM	–	> 100 µM	–	50.2 µM	–	> 100 µM	–	–	–	34.9 µM
COc1ccc(-c2ccc(-c3ccc(C(=N)N)cn3)o2)cc1	3200 nM	13.7 µM	11.7 µM	24.6 µM	10400 nM	22.1 µM	4.7 µM	17.4 µM	3.4 µM	11.1 µM	11.3 µM	24.7 µM	4.91 µM	15.9 µM	4.18 µM	18 µM
OCCNc1ncnc2c1ncn2Cc1cccc(COc2cccc(OCc3cccc(Cn4cnc5c(NCCO)ncnc54)c3)c2)c1	11300 nM	33.1 µM	15.4 µM	30.4 µM	14700 nM	34.2 µM	12.3 µM	24.7 µM	4.05 µM	16.5 µM	16.7 µM	32.5 µM	16 µM	35.2 µM	14.5 µM	30.4 µM
Cc1cc(Cl)ccc1Nc1nc(C(F)(F)F)ccc1C(=O)N/N=C/c1ccc([N+](=O)[O-])cc1	144 nM	0.526 µM	3.61 µM	> 100 µM	602 nM	> 20 µM	0.953 µM	–	3.11 µM	> 37.5 µM	1.78 µM	–	1.92 µM	8.5 µM	0.598 µM	–
COc1ccc2[nH]c(O)c(C(=Nc3ccc(N(C)C(=O)CN4CCN(C)CC4)cc3)c3ccccc3)c2c1	2680 nM	10.4 µM	3.72 µM	10.7 µM	2130 nM	12.6 µM	1.84 µM	5.27 µM	0.341 µM	10.8 µM	2.66 µM	11.8 µM	2.12 µM	5.37 µM	3.52 µM	17.5 µM
CCOc1cccc(/C=N/NC(=O)C(=O)Nc2cccc(C(F)(F)F)c2)c1O	322 nM	7.41 µM	2.48 µM	> 100 µM	398 nM	> 100 µM	1.46 µM	> 100 µM	6.51 µM	> 100 µM	3.22 µM	> 100 µM	5.3 µM	> 100 µM	1.95 µM	> 100 µM
CCC[n+]1cc2cc(OC)c(OC)cc2c2c1-c1cc3c(cc1C2)OCO3	2530 nM	–	0.254 µM	1.68 µM	4840 nM	19.2 µM	0.211 µM	3.57 µM	5.03 µM	> 34.6 µM	7.82 µM	38.6 µM	2.65 µM	9.18 µM	4.7 µM	20.7 µM
C=C1C(=O)O[C@H]2[C@H]1CC/C(COC(=O)c1cc3cc(Cl)ccc3[nH]1)=C\CC[C@@]1(C)O[C@@H]21	394 nM	1.61 µM	2.91 µM	10.1 µM	1330 nM	2.72 µM	1.75 µM	3.32 µM	1.33 µM	3.12 µM	–	–	1.73 µM	3.59 µM	2.42 µM	6.58 µM
Cn1c2c(c3ccc(Cl)c(Cl)c31)C(C#N)C1(CCNCC1)NC2=O (stereo not drawn)	1930 nM	4.72 µM	3.1 µM	13 µM	2820 nM	8.8 µM	2.94 µM	10.7 µM	2.02 µM	–	1.56 µM	3.03 µM	2.12 µM	4.73 µM	1.55 µM	4.99 µM
C=CC(=O)Nc1cc2c(Nc3ccc(F)c(Cl)c3)ncnc2cc1OCCCN1CCOCC1	2190 nM and 2630 nM	> 27.4 µM	2.53 µM and > 6.7 µM	14.7 µM and > 10 µM	2610 nM and 2710 nM	9.73 µM and > 10 µM	3.57 µM and > 6.22 µM	14.9 µM and > 10 µM	1.64 µM and 2.26 µM	3.48 µM and > 8.38 µM	0.159 µM and 0.741 µM	12.2 µM and > 10 µM	1.96 µM and 2.17 µM	3.79 µM and > 6.51 µM	2.76 µM and 4.33 µM	9.85 µM and > 10 µM
COc1ccc(C2=NN(C=O)C(c3cccc(Nc4ccnc5cc(Cl)ccc45)c3)C2)cc1 (stereo not drawn)	2140 nM	13.1 µM	5.11 µM	> 100 µM	1540 nM	31.8 µM	2.77 µM	14.4 µM	1.65 µM	9.7 µM	3.62 µM	89.3 µM	–	–	2.87 µM	> 100 µM
Fc1cc2[nH]ncc2c2c3c(c(-c4cn[nH]c4C(F)(F)F)nc12)C1CCC3C1 (stereo not drawn)	1230 nM	> 50 µM	1.59 µM	6.57 µM	2680 nM	23.4 µM	1.4 µM	5.09 µM	1.47 µM	10.5 µM	1.12 µM	7.52 µM	1.57 µM	4.2 µM	–	–
Nc1ccc(C(=O)CC(N)C(=O)O)cc1O (stereo not drawn)	–	> 100 µM	–	> 100 µM	–	> 100 µM	–	> 100 µM	–	> 100 µM	–	> 100 µM	–	> 100 µM	–	> 100 µM
O=C(O)C1CCCCC1C(=O)O.[NH-]C1CCC1.[NH2-].[Pt+2] (stereo not drawn)	–	–	> 100 µM	> 100 µM	15200 nM	29.7 µM	58 µM	> 100 µM	17.2 µM	35.3 µM	12.5 µM	25 µM	57.2 µM	> 100 µM	> 100 µM	> 100 µM
CCn1c(-c2nonc2N)nc2c(C#CC(C)(C)O)nc(OCCNC)cc21	7250 nM	> 25 µM	8.4 µM	> 25 µM	9890 nM	> 25 µM	6.5 µM	> 25 µM	6.21 µM	13.8 µM	8.53 µM	> 25 µM	6.64 µM	15.4 µM	6.88 µM	> 25 µM
Nc1ccccc1C#C/C=C\C#Cc1ccccc1[N+](=O)[O-]	3750 nM	18.1 µM	19.8 µM	96.2 µM	–	–	3.72 µM	18.9 µM	–	–	7.86 µM	29.2 µM	12.9 µM	34.7 µM	6.82 µM	> 100 µM

SMILES	GI50 (CCRF-CEM leukemia)	TGI (CCRF-CEM leukemia)	GI50 (SNB-19 CNS)	TGI (SNB-19 CNS)	GI50 (OVCAR-4 ovarian)	TGI (OVCAR-4 ovarian)	GI50 (U251 CNS)	TGI (U251 CNS)	GI50 (HT29 colon)	TGI (HT29 colon)	GI50 (DU-145 prostate)	TGI (DU-145 prostate)	GI50 (SK-MEL-2 melanoma)	TGI (SK-MEL-2 melanoma)	GI50 (PC-3 prostate)	TGI (PC-3 prostate)
COc1ccc(-c2oc3c(OC)c(OC)c(OC)c(OC)c3c(=O)c2OC)cc1OC	–	> 100 µM	–	> 100 µM	–	> 100 µM	–	> 100 µM	–	64.8 µM	–	> 100 µM	–	> 100 µM	–	> 100 µM
COc1cc2c(=O)n(CCN)c3c4cc5c(cc4ccc3c2cc1OC)OCO5	182 nM	–	0.414 µM	1.97 µM	902 nM	2.55 µM	0.287 µM	1.75 µM	0.222 µM	1.65 µM	0.488 µM	1.83 µM	3.69 µM	16.5 µM	0.591 µM	2.27 µM
CNCCn1c(=O)c2cc(OC)c(OC)cc2c2ccc3cc4c(cc3c21)OCO4	20.3 nM	0.952 µM	0.116 µM	5.61 µM	175 nM	4.26 µM	0.0495 µM	1.19 µM	0.072 µM	1.04 µM	0.122 µM	2.51 µM	0.533 µM	1.53 µM	0.109 µM	6.23 µM
O=C1C(c2ccccc2)=[N+]([O-])c2ccccc21	–	> 100 µM	–	37.5 µM	–	15.3 µM	–	28.7 µM	–	42.1 µM	–	32.4 µM	–	28.3 µM	–	27.3 µM
Cc1[nH]nc(C(=O)n2nc(N)c3ccccc32)c1[N+](=O)[O-]	32200 nM	> 100 µM	> 100 µM	> 100 µM	> 100000 nM	> 100 µM	> 57.2 µM	> 100 µM	> 100 µM	> 100 µM	> 100 µM	> 100 µM	> 100 µM	> 100 µM	> 100 µM	> 100 µM
Cc1c(C(=O)NCCN2CCOCC2)cn2ncnc(Oc3ccc(NC(=O)Nc4ccc(Cl)c(C(F)(F)F)c4)cc3)c12	–	–	–	–	2370 nM	5.61 µM	1.79 µM	5.36 µM	1.57 µM	> 100 µM	–	–	–	–	0.842 µM	2.33 µM
CCN(CC)C(=S)SC	–	> 100 µM	–	> 100 µM	–	–	–	> 100 µM	–	> 100 µM	–	> 100 µM	–	> 100 µM	–	> 100 µM
CCOC(=O)/C=C/C1=C(c2cccs2)c2ccccc2CC1	27300 nM	73.1 µM	30.9 µM	> 100 µM	38900 nM	> 100 µM	19.7 µM	39.6 µM	24.4 µM	65.3 µM	22.6 µM	58.6 µM	35.9 µM	> 100 µM	37.1 µM	> 100 µM
O=C1NC(=S)S/C1=C(/C=C(\CC(=O)c1ccccc1)c1ccc(Cl)cc1)c1ccccc1	24700 nM	73.7 µM	95.1 µM	> 100 µM	44900 nM	> 100 µM	30.9 µM	> 100 µM	–	–	43.1 µM	> 100 µM	–	–	25.8 µM	83.3 µM
COc1ccc2c(c1)/C(=C\c1c(Cl)[nH]c3ccc(OC)cc13)C(=O)N2	32500 nM	> 100 µM	20.6 µM	64.1 µM	41800 nM	> 100 µM	19.7 µM	43.8 µM	21.4 µM	> 100 µM	> 100 µM	> 100 µM	25.8 µM	62.8 µM	48.9 µM	> 100 µM
COc1ccc2cc(-c3c(-c4ccncc4)nc(-c4ccc(S(C)(=O)=O)cc4C)n3C)ccc2c1	8460 nM	> 25 µM	9.04 µM	> 25 µM	5300 nM	22 µM	11.2 µM	> 25 µM	8.37 µM	> 25 µM	10.2 µM	> 25 µM	6.78 µM	> 25 µM	8.35 µM	> 25 µM
Cc1ccc(-c2csc(NC(=O)CN3CCN(c4cc5c(cc4F)c(=O)c(C(=O)O)cn5C4CC4)CC3)n2)cc1	569 nM	> 100 µM	0.87 µM	27 µM	2380 nM	> 100 µM	0.388 µM	13.4 µM	0.326 µM	6.91 µM	0.513 µM	> 100 µM	1.33 µM	4.09 µM	0.504 µM	> 100 µM
Cc1nc2sccn2c1-c1csc(Nc2cccc(Cl)c2C)n1	4010 nM	82.1 µM	12.6 µM	> 100 µM	3050 nM	> 100 µM	4.37 µM	19.6 µM	3.29 µM	14.7 µM	8.45 µM	72 µM	3.78 µM	14 µM	3.72 µM	87.3 µM
NC(N)=NCCC1OC(=O)C2=C1c1c(O)ccc3nccc(c13)O2 (stereo not drawn)	> 100000 nM	> 100 µM	50.5 µM	> 100 µM	–	–	56.7 µM	> 100 µM	–	–	> 100 µM	> 100 µM	> 100 µM	> 100 µM	> 100 µM	> 100 µM
COc1cc(C(=O)Nc2cc3c(cc2Oc2cc(C)cc(C)c2)C(=O)N(C)[C@@H](CC(=O)N(C)O)C(=O)N3)c(Br)c(OC)c1OC	–	–	< 0.00333 µM	0.00576 µM	< 3.33 nM	< 0.00333 µM	< 0.00333 µM	0.00506 µM	< 0.00333 µM	< 0.00333 µM	< 0.00333 µM	0.00428 µM	< 0.00333 µM	< 0.00333 µM	< 0.00333 µM	0.00358 µM
Cc1cc(S(=O)(=O)NC#N)c(S/C(=N\Nc2ccc([N+](=O)[O-])cc2)c2ccc(Cl)cc2)cc1Cl	32100 nM	> 100 µM	25.2 µM	> 100 µM	20900 nM	75 µM	48.2 µM	> 100 µM	–	–	17.6 µM	> 100 µM	> 100 µM	> 100 µM	33.6 µM	> 100 µM
